Structures are written as SMILES.

In patent US20200123146A1, “HETEROCYCLIC INTEGRIN AGONISTS” (GB006, Inc., priority 2016, published 2020) one finds EC50 data, which are given here for 26 compounds.

The test concerns the target T1, integrin CD11b/CD18 (K562 CD11b/CD18 cells) (Homo sapiens, UniProt P05107+P11215).
T1 construct: host or cells: K562 cells stably transfected with wild-type CD11b/CD18
The experiment in a line: K562 cell adhesion assay with immobilized ligands. As to conditions: cell-based adhesion assay, K562 cells, 30 min at 37° C. It is filed as cell-based. The text has this:
Cell Lines. K562 cells (ATCC) stably transfected with wild-type integrin CD11b/CD18 (K562 CD11b/CD18) have been described previously (Park, etal. J Biomol Screen, 2007. 12(3): 406; Gupta, et al., Blood, 2007. 109(8): 3513; incorporated herein by reference in their entirety). Mutant CD11bE320A has been described previously (Alonso, et al. Curr Biol, 2002. 12(10): R340; incorporated herein by reference in its entirety). K562 cells stably transfected with mutant integrin CD11bE320A/CD18 (K562 E320A) were generated according to literature protocols (Park, supra; Gupta, supra). All cell lines were maintained in Iscove's Modified Dulbecco's Medium (IMDM) supplemented with 10% heat-inactivated fetal bovine serum, 50 IU/ml penicillin and streptomycin and 0.5 mg/ml G418.
K562 Cell Adhesion Assay. Cell adhesion assays with immobilized ligands were performed as previously described (Park, supra). Assays with all different K562 cell lines (K562, K562 CD11b/CD18 and K562 E320A) were performed in an identical fashion. Briefly, 384-well Highbind microtiter plates were coated with a 30 μL solution of ligand in Phosphate Buffered Saline, pH 7.4 containing 1 mM each of Ca^2+ and Mg^2+ ions (PBS^++) overnight at 4° C. Ligand Fg was coated at a concentration of 5-15 μg/mL and iC3b at 1-5 μg/mL. Heterodimer specific mAb IB4 was coated at 1-20 μg/mL. Subsequently, the non-specific sites in the wells were blocked by incubation with 1% non-fat milk in Tris Buffered Saline (TBS), pH 7.4, at room temperature for 1 h. Next, the wells were washed three times with TBS. K562 cells were suspended in the assay buffer (TBS containing 1 mM each of Ca^2+ and Mg^2+ ions (TBS^++)) and were transferred to the ligand-coated wells (30,000 cells/well). Stock solutions of the integrin agonists were prepared by dissolving the compounds in DMSO at a concentration of 2-10 mM. Final concentration of DMSO in the assay was approximately 1-2%. K562 cells were incubated in the presence of increasing concentration of integrin agonist for 30 min at 37° C. To dislodge non-adherent cells, the assay plates were gently inverted and kept in the inverted position for 30 min at room temperature. Cells remaining adherent were fixed using formaldehyde and were quantitated using imaging microscopy, as previously described (Park, supra).
Take `CN1C(=O)N(Cc2ccccc2)C(=O)/C1=C/c1ccc(-c2ccc(C(=O)O)cc2)o1` [Compound 2, (Z)-4-(5-((1-Benzyl-3-methyl-2,5-dioxoimidazolidin-4-ylidene)methyl)furan-2-yl)benzoic acid]: the EC50 (commonly the concentration giving half of the maximal effect) is > 10 µM.

As to `O=C(O)c1ccc(-c2ccc(/C=C3\NC(=O)N(Cc4ccccc4)C3=O)o2)cc1` [Compound 3, (Z)-4-(5-((1-Benzyl-2,5-dioxoimidazolidin-4-ylidene)methyl)furan-2-yl)benzoic acid], the 50% effective concentration (EC50) was > 10 µM.

`O=C(O)c1ccc(-c2ccc(/C=C3\NC(=S)N(Cc4ccccc4)C3=O)o2)cc1` [Compound 4, (Z)-4-(5-((1-Benzyl-5-oxo-2-thioxoimidazolidin-4-ylidene)methyl)furan-2-yl)benzoic acid] had an EC50 of 1 to 10 µM.

Regarding `CN1C(=S)N(Cc2ccccc2)C(=O)/C1=C/c1ccc(-c2ccc(C(=O)O)cc2)o1` [Compound 5, (Z)-4-(5-((1-Benzyl-3-methyl-5-oxo-2-thioxoimidazolidin-4-ylidene)methyl)furan-2-yl)benzoic acid], the EC50 is > 10 µM.

Take `CCOC(=O)c1ccc(-c2ccc(CN3CC(=O)N(Cc4ccccc4)C3=O)o2)cc1` [Compound 6, Ethyl 4-(5-((3-benzyl-2,4-dioxoimidazolidin-1-yl)methyl)furan-2-yl)benzoate]: the EC50 was > 10 µM.

With `CCOC(=O)c1ccc(-c2ccc(CN3CC(=S)N(Cc4ccccc4)C3=O)o2)cc1` [Compound 7, Ethyl 4-(5-((3-benzyl-2-oxo-4-thioxoimidazolidin-1-yl)methyl)furan-2-yl)benzoate], the EC50 was > 10 µM.

As for `O=C(O)c1ccc(-c2cccc(/C=C3\OC(=S)N(Cc4ccc(F)cc4)C3=O)c2)cc1` [Compound 9, (Z)-3′-((3-(4-Fluorobenzyl)-4-oxo-2-thioxooxazolidin-5-ylidene)methyl)-[1,1′-biphenyl]-4-carboxylic acid], the EC50 is > 10 µM.

As to `COC(=O)c1ccc(-c2ccc(/C=C3\OC(=S)N(Cc4ccc(F)cc4)C3=O)o2)cn1` [Compound 10, methyl (Z)-5-(5-((3-(4-fluorobenzyl)-4-oxo-2-thioxooxazolidin-5-ylidene)methyl)furan-2-yl)picolinate], the EC50 was 0.25 to 1 µM.

In the case of `O=C(O)c1ccc(-c2ccc(CN3CC(=O)N(Cc4ccccc4)C3=O)o2)cc1` [Compound 11, 4-(5-((3-Benzyl-2,4-dioxoimidazolidin-1-yl)methyl)furan-2-yl)benzoic acid], the 50% effective concentration (EC50) was > 10 µM.

As for `COC(=O)c1ccc(-c2ccc(/C=C3\SC(=S)N(Cc4ccccc4)C3=O)o2)cn1` [Compound 13, Methyl (Z)-5-(5-((3-benzyl-4-oxo-2-thioxothiazolidin-5-ylidene)methyl)furan-2-yl)picolinate], the EC50 was 0.25 to 1 µM.

For `O=C(O)c1ccc(-c2ccc(/C=C3\SC(=S)N(Cc4ccccc4)C3=O)o2)nc1` [Compound 14, (Z)-6-(5-((3-Benzyl-4-oxo-2-thioxothiazolidin-5-ylidene)methyl)furan-2-yl)nicotinic acid], the concentration giving a half-maximal response (EC50) was 0.25 to 1 µM.

In the case of `COC(=O)c1ccc(-c2ccc(/C=C3\SC(=S)N(Cc4ccc(F)cc4)C3=O)o2)cn1` [Compound 16, Methyl (Z)-5-(5-((3-(4-fluorobenzyl)-4-oxo-2-thioxothiazolidin-5-ylidene)methyl)furan-2-yl)picolinate], the concentration for a half-maximal effect (EC50) fell in the range of 0.1 to 0.25 µM.

With `O=C(O)c1ccc(-c2cccc(/C=C3\SC(=S)N(Cc4ccccc4)C3=O)c2)cc1` [Compound 17, (Z)-3′-((3-Benzyl-4-oxo-2-thioxothiazolidin-5-ylidene)methyl)-[1,1′-biphenyl]-4-carboxylic acid], the concentration giving a half-maximal response (EC50) was 1 to 10 µM.

With `O=C(O)c1ccc(-c2cccc(/C=C3\SC(=S)N(Cc4ccccc4)C3=O)n2)cc1` [Compound 18, (Z)-4-(6-((3-Benzyl-4-oxo-2-thioxothiazolidin-5-ylidene)methyl)pyridin-2-yl)benzoic acid], the concentration giving a half-maximal response (EC50) fell in the range of 1 to 10 µM.

`O=C(O)c1ccc(-c2nccc(/C=C3\SC(=S)N(Cc4ccccc4)C3=O)n2)cc1` [Compound 19, (Z)-4-(4-((3-Benzyl-4-oxo-2-thioxothiazolidin-5-ylidene)methyl)pyrimidin-2-yl)benzoic acid] yielded an EC50 of 1 to 10 µM.

Consider `O=C(O)c1ccc(-c2cccc(/C=C3\SC(=S)N(Cc4ccc(F)cc4)C3=O)c2)cc1` [Compound 20, (Z)-3′-((3-(4-Fluorobenzyl)-4-oxo-2-thioxothiazolidin-5-ylidene)methyl)-[1,1′-biphenyl]-4-carboxylic acid], for which the 50% effective concentration (EC50) was 1 to 10 µM.

`O=C(O)c1ccc(-c2cccc(/C=C3\SC(=S)N(Cc4ccc(F)cc4)C3=O)n2)cc1` [Compound 21, (Z)-4-(6-((3-(4-Fluorobenzyl)-4-oxo-2-thioxothiazolidin-5-ylidene)methyl)pyridin-2-yl)benzoic acid] came in with an EC50 of 0.25 to 1 µM.

The compound `O=C(O)c1ccc(-c2ccnc(/C=C3\SC(=S)N(Cc4ccc(F)cc4)C3=O)c2)cc1` [Compound 22, (Z)-4-(2-((3-(4-Fluorobenzyl)-4-oxo-2-thioxothiazolidin-5-ylidene)methyl)pyridin-4-yl)benzoic acid] showed a concentration for a half-maximal effect (EC50) of 1 to 10 µM.

For `COC(=O)c1ccc(-c2cccc(/C=C3\SC(=S)N(Cc4ccccc4)C3=O)c2)cc1` [Compound 23, methyl (Z)-3′-((3-benzyl-4-oxo-2-thioxothiazolidin-5-ylidene)methyl)-[1,1′-biphenyl]-4-carboxylate], the EC50 was > 10 µM.

Consider `COC(=O)c1ccc(-c2cccc(/C=C3\SC(=S)N(Cc4ccccc4)C3=O)n2)cc1` [Compound 24, Methyl (Z)-4-(6-((3-benzyl-4-oxo-2-thioxothiazolidin-5-ylidene)methyl)pyridin-2-yl)benzoate], for which the EC50 is > 10 µM.

`O=C(O)c1ccc(-c2ccc(/C=C3\SC(=S)N(Cc4ccccc4)C3=O)s2)cc1` [Compound 25, (Z)-4-(5-((3-Benzyl-4-oxo-2-thioxothiazolidin-5-ylidene)methyl)thiophen-2-yl)benzoic acid] showed an EC50 of 0.1 to 0.25 µM.

`Cc1ccccc1CN1C(=O)/C(=C/c2ccc(-c3ccc(C(=O)O)cc3)o2)SC1=S` [Compound 26, (Z)-4-(5-((3-(2-Methylbenzyl)-4-oxo-2-thioxothiazolidin-5-ylidene)methyl)furan-2-yl)benzoic acid] returned an EC50 of 0.25 to 1 µM.

Compound `COc1ccccc1CN1C(=O)/C(=C/c2ccc(-c3ccc(C(=O)O)cc3)o2)SC1=S` [Compound 27, (Z)-4-(5-((3-(2-Methoxybenzyl)-4-oxo-2-thioxothiazolidin-5-ylidene)methyl)furan-2-yl)benzoic acid] showed an EC50 of 0.25 to 1 µM.

On to `Cc1cccc(CN2C(=O)/C(=C/c3ccc(-c4ccc(C(=O)O)cc4)o3)SC2=S)c1` [Compound 28, (Z)-4-(5-((3-(3-Methylbenzyl)-4-oxo-2-thioxothiazolidin-5-lidene)methyl)furan-2-yl)benzoic acid], for which the concentration giving a half-maximal response (EC50) lay in the range of 0.25 to 1 µM.

`COc1cccc(CN2C(=O)/C(=C/c3ccc(-c4ccc(C(=O)O)cc4)o3)SC2=S)c1` [Compound 29, (Z)-4-(5-((3-(3-Methoxybenzyl)-4-oxo-2-thioxothiazolidin-5-ylidene)methyl)furan-2-yl)benzoic acid] returned an EC50 of 0.25 to 1 µM.

Turning to `O=C(O)c1ccc(-c2ccc(/C=C3\SC(=S)N(Cc4cccc(Cl)c4)C3=O)o2)cc1` [Compound 30, (Z)-4-(5-((3-(3-Chlorobenzyl)-4-oxo-2-thioxothiazolidin-5-ylidene)methyl)furan-2-yl)benzoic acid], the EC50 lay in the range of 0.1 to 0.25 µM.
